Usually inhibition stands for the drop in the measured response relative to a control, in per cent. As usually defined, the EC50 is the concentration that produces a half-maximal response.

For one assay, the system named is HBV. Put plainly: HBV inhibition in HepAD38 cells, extracellular HBV DNA by direct qPCR. Type of assay: cell-based, hepatitis B virus. Particulars: Hepatitis B virus; 0.1 μM, HepAD38, 96 hours; read-out: HBV inhibition % (conc μM). From the text:
HepAD38 cell line (Ladner et al., Antimicrob Agents Chemother, 1997, 41, 1715-20) was used for HBV inhibition assays. HepAD38 is a subclone, derived from hepatoblastoma cell line HepG2 (ATCC® Number: HB-8065™), that expresses HBV genome under the transcriptional control of a tetracycline-responsive promoter in a TET-OFF system: addition of tetracycline (TET) or doxycycline suppresses HBV replication, while its removal switches on the process allowing HBV viral particles release in the cell supernatant. HepAD38 cell line is maintained in DMEM/F12, supplemented with 10% of fetal bovine serum, 1% of glutamine, 1% of penicillin/streptomycin, 0.4 mg/ml G418 and 0.3 ug/ml tetracycline. For the HBV inhibition assay, doxycycline-free medium is used in order to allow virion production.
HBV inhibition activity in vitro was performed in 96 multiwell plates. During the initial (primary) screening compounds were first tested in triplicates at concentrations of 0.1 μM, 0.5 μM and 1 μM. For selected compounds, an 8-point dose-response curve was obtained using 1:2 serial dilutions (starting from 2.5 μM, 1.25 μM or 0.4 μM, depending on the degree of inhibition observed during the primary screening). From the dose-response curves, half maximal effective concentration (EC50) could be calculated (see also below).
In more detail, compounds—typically dissolved in DMSO stock solutions—were diluted to 2× the final desired concentration in 100 μl of the above medium (without doxycycline) and plated in three replicates in the 96-well plates.
Simultaneously, HepAD38 cells—extensively pre-washed in tetracycline-free medium in order to induce HBV production—were suspended at 2*10^4 cells in 100 μl of tetracycline-free medium and added to each well of the plate, to yield a final assay volume of 200 μl.
DMSO, used for stock solutions and compounds dilutions, is always present in the assays at a final concentration of 0.5%.
Plates were then incubated 96 hours at 37° C. and then subjected to cell viability assays and extracellular HBV quantification, in order to evaluate both the cytotoxic potential and the anti-viral activity of compounds.
Cytotoxicity was assessed by a commercial fluorescence assay that measures the metabolic activity of cells, directly related to cell viability (Cell Titer Blue, Promega). For each compound, cytotoxicity was evaluated at the same concentration employed to evaluate its anti-HBV activity. Anti-HBV activity was evaluated by quantification of extracellular HBV DNA with direct qPCR. In particular, supernatant was collected and centrifuged for cell debris clarification, viral DNA was extracted from virions by addition of lysis buffer (1 mM 1,4-dithiothreitol, 0.2% sodium dodecyl sulphate) and incubated at 95° C. for 10 min. Samples were then diluted 1:40 and real time PCR amplification was performed with SYBR green assay (Power SYBR™ Green PCR Master Mix-Thermo Fisher Scientific) and specific HBV primer (HBV-DF:5′-[…]-3′ (SEQ ID No. 1), HBV-DR:5′-[…]-3′ (SEQ ID No. 2)).
All HBV inhibition or antiviral activity data are typically reported in percent (%) relative to a non-treated reference sample. Excel and Graphpad Prism programs are typically used for data elaboration and EC50 calculation.
Background: In qPCR the cycle at which signal appears reflects the starting amount.
Consider `Cc1cc(N)c(S(N)(=O)=O)cc1C(=O)Nc1ccc(F)c(C(F)F)c1` [Example E68, 4-amino-N-(3-(difluoromethyl)-4-fluorophenyl)-2-methyl-5-sulfamoylbenzamide], for which the inhibition at 0.1 µM is above 50%.

Still in this assay, the particulars now being: Hepatitis B virus; 0.5 μM, HepAD38, 96 hours; read-out: HBV inhibition % (conc μM).
Take `Cc1cc(N)c(S(N)(=O)=O)cc1C(=O)Nc1ccc(F)c(C(F)(F)F)c1` [Example E67, 4-amino-N-(4-fluoro-3-(trifluoromethyl)phenyl)-2-methyl-5-sulfamoylbenzamide]: the inhibition at 0.5 µM was above 50%.
Same read-out and setting: in the case of `CC(C)(C)OC(=O)N1CCC(NS(=O)(=O)c2cc(C(=O)Nc3cc(F)c(F)c(F)c3)ccc2N)CC1` [Example E27, tert-butyl 4-((2-amino-5-((3,4,5-trifluorophenyl)carbamoyl)phenyl)sulfonamido)piperidine-1-carboxylate] it was below 50%; in that of `Nc1ccc(C(=O)Nc2cc(F)c(F)c(F)c2)cc1S(=O)(=O)N1CCC(O)C1` (stereo not drawn) [Example E53, 4-amino-3-((3-hydroxypyrrolidin-1-yl)sulfonyl)-N-(3,4,5-trifluorophenyl)benzamide], above 50%.
On the same count and under the same terms, in the case of `Nc1ccc(C(=O)Nc2cc(F)c(F)c(F)c2)cc1S(=O)(=O)NC(CO)CO` [Example E48, 4-amino-3-(N-(1,3-dihydroxypropan-2-yl)sulfamoyl)-N-(3,4,5-trifluorophenyl)benzamide] it was below 50%.
On the same count and under the same terms, in the case of `Nc1ccc(C(=O)Nc2ccc(F)c(F)c2)cc1S(N)(=O)=O` [Example E4, 4-amino-N-(3,4-difluorophenyl)-3-sulfamoylbenzamide] it was above 50%.
For the compound `Nc1ccc(C(=O)Nc2ccc(F)c(F)c2F)cc1S(N)(=O)=O` [Example E14, 4-amino-3-sulfamoyl-N-(2,3,4-trifluorophenyl)benzamide], the inhibition at 0.5 µM was below 50%.
On to `Nc1ccc(C(=O)Nc2cc(F)c(F)c(F)c2)cc1S(=O)(=O)N[C@H]1CC[C@@H](O)CC1` [Example E22, cis-4-amino-3-(N-(4-hydroxycyclohexyl)sulfamoyl)-N-(3,4,5-trifluorophenyl)benzamide], for which the inhibition at 0.5 µM is above 50%.
`CC(C)(C)OC(=O)N1CC[C@H](NS(=O)(=O)c2cc(C(=O)Nc3cc(F)c(F)c(F)c3)ccc2N)C1` [Example E34, tert-butyl (S)-3-((2-amino-5-((3,4,5-trifluorophenyl)carbamoyl)phenyl)sulfonamido)pyrrolidine-1-carboxylate]: the inhibition at 0.5 µM is above 50%.
With `N#Cc1cc(NC(=O)c2ccc(N)c(S(N)(=O)=O)c2)ccc1F` [Example E8, 4-amino-N-(3-cyano-4-fluorophenyl)-3-sulfamoylbenzamide], the inhibition at 0.5 µM was above 50%.
With `Nc1ccc(C(=O)Nc2cc(F)c(F)c(F)c2)cc1S(=O)(=O)NC1(CO)COC1` [Example E38, 4-amino-3-(N-(3-(hydroxymethyl)oxetan-3-yl)sulfamoyl)-N-(3,4,5-trifluorophenyl)benzamide], the inhibition at 0.5 µM was above 50%.
As for `CC(NS(=O)(=O)c1cc(C(=O)Nc2cc(F)c(F)c(F)c2)ccc1N)c1ccccn1` (stereo not drawn) [Example E42, 4-amino-3-(N-(1-(pyridin-2-yl)ethyl)sulfamoyl)-N-(3,4,5-trifluorophenyl)benzamide], the inhibition at 0.5 µM was below 50%.
Take `Nc1ccc(C(=O)Nc2cc(F)c(F)c(F)c2)cc1S(=O)(=O)NC1COC1` [Example E33, 4-amino-3-(N-(oxetan-3-yl)sulfamoyl)-N-(3,4,5-trifluorophenyl)benzamide]: the inhibition at 0.5 µM was above 50%.
Regarding `Nc1ccc(C(=O)Nc2cc(F)c(F)c(F)c2)cc1S(=O)(=O)N[C@H]1CC[C@@H](O)C1` [Example E47, 4-amino-3-(N-((1S,3R)-3-hydroxycyclopentyl)sulfamoyl)-N-(3,4,5-trifluorophenyl)benzamide], the inhibition at 0.5 µM is above 50%.
As for `Nc1ccc(C(=O)Nc2cc(F)c(F)c(F)c2)cc1S(=O)(=O)NC1CC1` [Example E20, 4-amino-3-(N-cyclopropylsulfamoyl)-N-(3,4,5-trifluorophenyl)benzamide], the inhibition at 0.5 µM is above 50%.
On to `Nc1ccc(C(=O)Nc2ccc(F)c(C(F)F)c2)cc1S(=O)(=O)N[C@H]1CC[C@H](O)CC1` [Example E44, 4-amino-N-(3-(difluoromethyl)-4-fluorophenyl)-3-(N-((1r,4r)-4-hydroxycyclohexyl)sulfamoyl)benzamide], for which the inhibition at 0.5 µM was above 50%.
With `Nc1ccc(C(=O)Nc2cc(F)c(F)c(F)c2)cc1S(=O)(=O)N[C@H]1C[C@H](O)C1` [Example E25], the inhibition at 0.5 µM was above 50%.
`Cc1c(F)cc(NC(=O)c2ccc(N)c(S(N)(=O)=O)c2)cc1F` [Example E13, 4-amino-N-(3,5-difluoro-4-methylphenyl)-3-sulfamoylbenzamide]: the inhibition at 0.5 µM is below 50%.
Still for that read-out and setting: the value for `Cc1cc(N)c(S(N)(=O)=O)cc1C(=O)Nc1ccc(Cl)nc1` [Example E66, 4-amino-N-(6-chloropyridin-3-yl)-2-methyl-5-sulfamoylbenzamide] was below 50%; that for `Nc1ccc(C(=O)Nc2cc(F)c(F)c(F)c2)cc1S(=O)(=O)N1CCC(O)CC1` [Example E29, 4-amino-3-((4-hydroxypiperidin-1-yl)sulfonyl)-N-(3,4,5-trifluorophenyl)benzamide] was above 50%; that for `Nc1ccc(C(=O)Nc2cc(F)c(F)c(F)c2)cc1S(=O)(=O)NCC1(O)CCCCC1` [Example E39, 4-amino-3-(N-((1-hydroxycyclohexyl)methyl)sulfamoyl)-N-(3,4,5-trifluorophenyl)benzamide] was above 50%.
On to `Cc1cc(N)c(S(=O)(=O)N[C@H]2CC[C@H](O)CC2)cc1C(=O)Nc1cc(F)c(F)c(F)c1` [Example E23, trans-4-amino-5-(N-(4-hydroxycyclohexyl)sulfamoyl)-2-methyl-N-(3,4,5-trifluorophenyl)benzamide], for which the inhibition at 0.5 µM is above 50%.
Take `Nc1ccc(C(=O)Nc2cc(F)c(F)c(F)c2)cc1S(=O)(=O)N[C@@H]1CC[C@@H](O)C1` (stereo in doubt) [Example E26, 4-amino-3-(N-((1R,3R)-3-hydroxycyclopentyl)sulfamoyl)-N-(3,4,5-trifluorophenyl)benzamide]: the inhibition at 0.5 µM was above 50%.
Take `Nc1ccc(C(=O)Nc2ccc(Cl)nc2)cc1S(N)(=O)=O` [Example E11, 4-amino-N-(6-chloropyridin-3-yl)-3-sulfamoylbenzamide]: the inhibition at 0.5 µM is below 50%.
As to `Nc1ccc(C(=O)Nc2ccc(F)c(C(F)(F)F)c2)cc1S(N)(=O)=O` [Example E7, 4-amino-N-(4-fluoro-3-(trifluoromethyl)phenyl)-3-sulfamoylbenzamide], the inhibition at 0.5 µM was above 50%.

The assay is the same for the next values; noted with them: Hepatitis B virus; 1 μM, HepAD38, 96 hours; read-out: HBV inhibition % (conc μM).
Regarding `CNc1ccc(C(=O)Nc2cc(F)c(F)c(F)c2)cc1S(N)(=O)=O` [Example E1, 4-(methylamino)-3-sulfamoyl-N-(3,4,5-trifluorophenyl)benzamide], the inhibition at 1 µM is below 50%.

The assay is the same for the next values; noted with them: Hepatitis B virus; HepAD38, 8-point dose-response; read-out: HBV inh EC50.
For the compound `Nc1ccc(C(=O)Nc2cc(F)c(F)c(F)c2)cc1S(=O)(=O)N[C@H]1CC[C@H](O)CC1` [Example E21, trans-4-amino-3-(N-(4-hydroxycyclohexyl)sulfamoyl)-N-(3,4,5-trifluorophenyl)benzamide], the EC50 is below 1 µM.
For `Nc1ccc(S(=O)(=O)N2CCC(O)CC2)cc1C(=O)Nc1cc(F)c(F)c(F)c1` [Example E62, 2-amino-5-((4-hydroxypiperidin-1-yl)sulfonyl)-N-(3,4,5-trifluorophenyl)benzamide], the EC50 is below 1 µM.
`Nc1ccc(S(=O)(=O)N[C@H]2CC[C@H](O)CC2)cc1C(=O)Nc1cc(F)c(F)c(F)c1` [Example E61, trans-2-amino-5-(N-(4-hydroxycyclohexyl)sulfamoyl)-N-(3,4,5-trifluorophenyl)benzamide]: the EC50 was below 1 µM.

The same assay, now with this note: concentration not given, HepAD38.
`Cc1cc(NC(=O)c2cc(S(N)(=O)=O)c(N)cc2C)ccc1F` [Example E40, 4-amino-N-(4-fluoro-3-methylphenyl)-2-methyl-5-sulfamoylbenzamide]: the “HBV inhibition % (conc μM)” value is “A (HBV inhibition greater than 50% at the concentration indicated in the table)”.

For the origin of these results see patent US20210276967A1 (OSPEDALE SAN RAFFAELE S.R.L., priority 2018, published 2021).
